Assay results reported in US20120184624A1, “Treatment of Alzheimer's Disease” (priority 2010, published 2012).
Read-outs that look alike come from different tables or passages of the source.

Key:
[1] = biological target: T1, purified PP2Ac (catalytic subunit of PP2A) (Homo sapiens, UniProt P67775); assay: PP2A activity assay (malachite green), purified PP2Ac; assay type: biochemical; details: 10 nM okadaic acid, 1 hour
T1 construct: purchased upstate
Description: (§1) Either purified PP2Ac (upstate), cell lysates or PP2A-holoenzymes, which were purified by immunoprecipitation using a PP2A-A-subunit antibody (Millipore), were incubated with or without 10 mM metformin or 10 nM okadaic acid for 1 hour. Afterwards PP2A phosphatase activity was determined using a malachite green assay kit (upstate) following the manufacturer's instructions.

PP2A-holoenzymes = assay: PP2A activity assay (malachite green), PP2A-holoenzymes immunopurified from HeLa cell lysates; assay type: biochemical; details: 10 nM okadaic acid, 1 hour
Description: as §1

tau = assay type: cell-based, mouse; details: for de-phosphorylation of tau at PP2A sensitive sites: increasing concentration of phenformin over 16 h or 1 h
Description: (§2) Primary cortical neurons were isolated from brain of wt or transgenic (Mapt^tm1(EGFP)klt Tg(MAPT)8cPdav/J; Jackson Laboratory) embryos at day 14.5. Cortices were collected in DMEM (Lonza) and cells were dissociated by incubation with Trypsin/EDTA for 6.5 min at 37° C. Cells were then diluted in neurobasal medium (Gibco-BRL) containing B27 supplement (Gibco BRL). Cells were plated at a density of 4.0×10^5 onto 0.2 mg/ml poly-D-lysin (Sigma) and 2 μg/ml Laminin (Sigma) coated 12 well plates. Neurons were incubated at 37° C. with 8% CO2. One hour after seeding a complete change of medium was performed. Later on, each 96 hours half volumes of the medium were replaced by fresh medium. After 7 days in culture neurons were treated.
(§3) Cells were incubated with the respective substances as follows: Metformin (Sigma) at final concentrations up to 2.5 mM for 1 to >24 hours, okadaic acid (Sigma) at final concentrations from 1 nM to 10 nM for 4 h, Fostricien (Sigma) at final concentration of 1 μM for 4 h and AICAR (cell signalling) at final concentration of 5 mM for 0.5-16 h. For cell treatment without insulin, medium containing B27+insulin supplement was replaced with medium containing B27-supplement without insulin 24 h before treatment. 3 groups of 2 mice were treated with or without 5 mg/l metformin in the drinking water.
(§4) Cell pellets were homogenized in Magic-Mix (48% UREA, 15 mM Tris-HCL pH 7.5, 8.7% Glycerin, 1% SDS, 0.004% Bromphenolblue, 143 mM Mercaptoethanol), sonicated and boiled for 5 min at 95° C. Proteins were resolved on 8 or 10% SDS gels and blotted onto PVDF-membranes (Roche). Antibodies used in this study were purchased from the following companies: Tau-5 (Biosource), anti-human PHF pSer202 (Thermo scientific), Tau pSer356 (Biosource), Tau pSer262 (Biosource), Tau pSer396 (Sigma), Actin (Sigma), ACC (cell signalling), ACC pSer79 (cell signalling), phospho-S6 ribosomal protein pSer241/244 (cell signalling), p70S6 Kinase (cell signalling), p70S6K pThr421/pSer424 (cell signalling), mTOR (cell signalling), AMPK (cell signallling, AMPK pThr172 (cell singnaling), HRP-anti-rabbit (Amersham), HRP-anti-mouse (Dianova). The resulting bands were quantified using Imagequant5.2. Statistical analyses were performed using SigmaStat software package (v 3.0, SPSS, USA). For timecourse or dose-response studies, data were analyses by one-way ANOVA with post hoc Dunnett's or Bonferonni test to accommodate for multiple comparisons. A Student's t-test was used for two-group comparisons, as appropriate.

ACC = assay: Phosphorylation of the AMPK target ACC (Ser79) in primary cortical neurons; assay type: cell-based, mouse; details: 0.25 mM phenformin, increasing time intervals
Description: as §2
as §3, with “3 groups of 2 mice were treated with or without 5 mg/l metformin in the drinking water.” left out
as §4, with “Proteins were resolved on 8 or 10% SDS gels and blotted onto PVDF-membranes (Roche).” left out, “Statistical analyses were performed using SigmaStat software package (v 3.0, SPSS, USA). For timecourse or dose-response studies, data were analyses by one-way ANOVA with post hoc Dunnett's or Bonferonni test to accommodate for multiple comparisons. A Student's t-test was used for two-group comparisons, as appropriate.” left out

p70S6kinase = assay: Phosphorylation of p70S6kinase in primary cortical neurons; assay type: cell-based, mouse; details: 0.25 mM phenformin over increasing time intervals
Description: as §2, §3, §4

[2] = increasing concentrations of okadaic acid (1 nM to 10 nM), four hours

T1 sequence (P67775 whole entry): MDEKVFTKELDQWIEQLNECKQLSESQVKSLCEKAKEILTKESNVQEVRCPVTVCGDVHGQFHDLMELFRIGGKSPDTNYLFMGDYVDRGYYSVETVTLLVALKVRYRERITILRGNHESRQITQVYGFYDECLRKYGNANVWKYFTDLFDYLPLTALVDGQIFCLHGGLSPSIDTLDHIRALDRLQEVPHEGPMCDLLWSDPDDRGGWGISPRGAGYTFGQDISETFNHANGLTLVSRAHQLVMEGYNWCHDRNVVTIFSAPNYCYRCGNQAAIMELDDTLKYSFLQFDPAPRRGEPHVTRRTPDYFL

C=C1[C@@H](O)[C@@H]2O[C@]3(CC[C@H](/C=C/[C@@H](C)[C@@H]4CC(C)=C[C@@]5(O[C@H](C[C@@](C)(O)C(=O)O)CC[C@H]5O)O4)O3)CC[C@H]2O[C@@H]1[C@@H](O)C[C@H](C)[C@H]1O[C@@]2(CCCCO2)CC[C@H]1C [okadaic acid]
PP2A activity of purified PP2Ac [1]: reduced | activity of the immunopurified PP2A protein complex (PP2A-holoenzymes): reduced | phosphorylation of Ser202 (tau; 10 nM okadaic acid alone, 4 hours): increased | phosphorylation of Ser202 relative to total tau (tau; [2]): increased with the concentration of OA | phosphorylation of Ser262 relative to total tau (tau; [2]): increased with the concentration of OA | phosphorylation of Ser356 relative to total tau (tau; [2]): increased with the concentration of OA | phosphorylation of Ser396 relative to total tau (tau; [2]): did not increase significantly

[H]/N=C(/N)N/C(=N/[H])NCCc1ccccc1 [phenformin, Phenformin]
ACC phosphorylation (Ser79) (ACC): neither metformin (FIG. 4a) nor phenformin (FIG. 12) had an effect | phosphorylation status of p70S6kinase (p70S6kinase): promoted de-phosphorylation | phosphorylation status of p70S6kinase (p70S6kinase; listed as Phenformin): decrease of pS6kinase phosphorylation | de-phosphorylation of tau at PP2A sensitive sites (tau): Comparable results | de-phosphorylation of tau at PP2A sensitive sites (tau; listed as Phenformin): induces de-phosphorylation | effect on Ser202 phosphorylation with and without okadaic acid pre-treatment (tau; okadaic acid 10 nM prior to phenformin 0.25 mM, 4 hours): inhibition of PP2A blocks the Phenformin effect
